{"source": "paper PMC11100015", "about": "“Bioluminescence Imaging of Potassium Ion Using a Sensory Luciferin and an Engineered Luciferase” (Journal of the American Chemical Society, 2024)", "molecular_target": "T1, BREP (Oplophorus gracilirostris, UniProt Q9GV45, A31E/Q38R/Q45L/D46S/L54V/A60N/K70R/V71I/A81I/F95D/L99Q/M102K/D112N/I117V/P142E/Q151K/Y165I/C191H/N193R)", "T1 construct": "fusion of mScarlet-I and teLuc (NanoLuc variant) via three-residue linker; recombinant, pBAD/His B, purified; with mScarlet-I red fluorescent protein (engineered RFP, RET acceptor)", "T1 sequence (Q9GV45 28-196 with the stated changes)": "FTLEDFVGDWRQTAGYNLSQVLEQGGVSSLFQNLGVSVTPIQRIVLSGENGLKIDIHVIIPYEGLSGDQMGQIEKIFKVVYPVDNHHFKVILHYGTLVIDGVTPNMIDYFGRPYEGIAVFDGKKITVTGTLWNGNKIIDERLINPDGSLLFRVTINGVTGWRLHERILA", "experiment": "bioluminescence emission spectra", "assay_type": "biochemical", "settings": "MOPS pH 7.4; 25 uM potassiorin, 100 nM enzyme"}
{"smiles": "O=c1c(Cc2ccc(OCCn3cc(-c4ccc(N5CCOCCOCCOCCOCCOCC5)cc4)nn3)cc2)nc2c(-c3ccccc3)[nH]c(-c3ccccc3)cn1-2", "note": "[compound 13, potassiorin]", "values": [{"measurement": "bioluminescence emission spectra", "result": "We measured the emission spectra of BREP and potassiorin in the absence and presence"}]}
